Reference: article PMC4184567, “Glucuronidation of drugs in humanized UDP-glucuronosyltransferase 1 mice: Similarity with glucuronidation in human liver microsomes” (Pharmacology Research & Perspectives, 2013)

Key:
[1] = system: UGT (furosemide glucuronidation); experiment: Inhibition of furosemide glucuronidation in human liver microsomes; assay type: in vitro ADME; conditions: pH 7.4, probe furosemide
Source text: (§1) IC50 values were directly determined from linear regression.

[2] = system: furosemide glucuronidation in human liver microsomes; experiment: as above; assay type: in vitro ADME; conditions: 500 μmol/L AZT
Source text: as §1

[3] = system: furosemide glucuronidation in mouse liver microsomes; experiment: Inhibition of furosemide glucuronidation in regular mouse liver microsomes; assay type: in vitro ADME; conditions: regular mice liver microsomes, 500 μmol/L AZT
Source text: as §1

[4] = system: UGT (furosemide glucuronidation); experiment: as above; assay type: in vitro ADME; conditions: CD-1, mouse, pH 7.4, probe furosemide; regular mice liver microsomes
Source text: as §1

[5] = system: UGT (furosemide glucuronidation); experiment: Inhibition of furosemide glucuronidation in liver microsomes from hUGT1 mice; assay type: in vitro ADME, humanized UGT1 mice; conditions: male, Tg(UGT1A1*28)Ugt1−/− (hUGT1), C57BL/6 background, mouse (humanized UGT1), pH 7.4, probe furosemide; humanized UGT1 mice liver microsomes
Source text: as §1

[6] = system: furosemide glucuronidation in liver microsomes from hUGT1 mice; experiment: as above; assay type: in vitro ADME, humanized UGT1 mice; conditions: hUGT1 mice liver microsomes, 500 μmol/L AZT
Source text: as §1

[7] = system: UGT activities in mouse liver microsomes; design: method as in Court and Greenblatt [1997]; conditions: ref Court and Greenblatt [1997]; cited from earlier work
[8] = system: UGT activities in human liver microsomes; design: method as in Court and Greenblatt [1997]; conditions: ref Court and Greenblatt [1997]; cited from earlier work
[9] = system: liver microsomes from hUGT1 mice
[10] = system: furosemide glucuronidation in human liver microsomes; conditions: 0–0.5% BSA
[11] = system: furosemide glucuronidation in liver microsomes from control mice; conditions: 0–0.5% BSA
[12] = system: furosemide glucuronidation in liver microsomes from hUGT1 mice; conditions: 0–0.5% BSA

Compound: Cc1cn([C@H]2C[C@H](N=[N+]=[N-])[C@@H](CO)O2)c(=O)[nH]c1=O [AZT, 3′-azido-3′-deoxythymidine]
- IC50 at 30 min [1]: > 500 µM
- Inhibition of furosemide glucuronidation (in words) [2]: did not inhibit
- Inhibition of furosemide glucuronidation (in words) [3]: did not inhibit
- IC50 at 30 min [4]: > 500 µM
- IC50 at 30 min [5]: > 500 µM
- Inhibition of furosemide glucuronidation (in words) [6]: did not inhibit

Compound: C[C@H](CCC(=O)NCCC[N+](C)(C)CCCS(=O)(=O)[O-])[C@H]1CC[C@H]2[C@@H]3[C@H](O)C[C@@H]4C[C@H](O)CC[C@]4(C)[C@H]3C[C@H](O)[C@]12C [CHAPS]
- Increase of UGT activity by detergent [7]: 439–563%
- Increase of UGT activities by detergent [8]: 9–66%

Compound: C[C@]12CC[C@@H]3c4ccc(O)cc4CC[C@H]3[C@@H]1CC[C@@H]2O [estradiol]
- IC50 at 30 min [1]: 31.7 µM
- IC50 at 30 min [4]: 111 µM
- IC50 at 30 min [5]: 32.5 µM

Compound: NCCc1c[nH]c2ccc(O)cc12 [serotonin]
- IC50 at 30 min [1]: > 5000 µM
- IC50 at 30 min [4]: 450 µM
- IC50 at 30 min [5]: 610 µM

Compound: CN1CCN(CCCN2c3ccccc3Sc3ccc(C(F)(F)F)cc32)CC1 [trifluoperazine]
- N-glucuronide formation (human liver microsomes): observed
- N-glucuronide formation (mouse liver microsomes): not detected
- N-glucuronide formation [9]: lesser but detectable amount

Compound: bovine serum albumin [BSA]
- Effect of BSA on furosemide glucuronidation [10]: concentration-dependently activated
- Effect of BSA on furosemide glucuronidation [11]: similarly observed
- Effect of BSA on furosemide glucuronidation [12]: similarly observed
